Experiments:
[1] = biological target: T1, Rho-associated protein kinase 2 (Homo sapiens, UniProt O75116); assay: Inhibition of ROCK2
[2] = Metabolic stability in human liver microsomes; assay type: ADME, Microsome
[3] = Inhibition of PKA
[4] = biological target: T1, Rho-associated protein kinase 2; assay: Inhibition of ROCK2 assessed as myosin light chain phosphorylation by cell-based assay
[5] = biological target: CYP2C9 (Homo sapiens, UniProt P11712); assay: Inhibition of CYP2C9 at 10 uM; assay type: ADME
[6] = biological target: CYP3A4 (Homo sapiens, UniProt P08684); assay: Inhibition of CYP3A4 at 10 uM; assay type: ADME
[7] = biological target: CYP2D6 (Homo sapiens, UniProt P10635); assay: Inhibition of CYP2D6 at 10 uM; assay type: ADME
[8] = biological target: T2, CYP1A2 (Homo sapiens, UniProt P05177); assay: Inhibition of CYP1A2 at 10 uM; assay type: ADME
T2 sequence (P05177 whole entry): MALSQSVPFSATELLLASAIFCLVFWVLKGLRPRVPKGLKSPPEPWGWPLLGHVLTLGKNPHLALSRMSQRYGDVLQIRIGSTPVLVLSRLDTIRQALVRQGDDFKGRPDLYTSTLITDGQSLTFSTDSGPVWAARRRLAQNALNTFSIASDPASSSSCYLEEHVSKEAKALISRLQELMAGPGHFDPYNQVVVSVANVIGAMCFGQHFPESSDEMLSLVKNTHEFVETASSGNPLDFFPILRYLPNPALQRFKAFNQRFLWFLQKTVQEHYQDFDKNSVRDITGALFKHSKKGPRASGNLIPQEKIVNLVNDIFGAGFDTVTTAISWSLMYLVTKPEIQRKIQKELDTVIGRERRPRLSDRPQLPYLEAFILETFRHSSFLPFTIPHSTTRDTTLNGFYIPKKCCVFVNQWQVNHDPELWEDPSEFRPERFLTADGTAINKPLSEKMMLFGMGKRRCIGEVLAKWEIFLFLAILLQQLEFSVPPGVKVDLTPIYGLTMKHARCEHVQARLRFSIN

[9] = Oral bioavailability in rat at 2 mg/kg; assay type: ADME, organism-based; conditions: in vivo
[10] = Clearance in rat at 1 mg/kg, iv or 2 mg/kg, po; assay type: ADME, organism-based; conditions: in vivo
[11] = Selectivity for ROCK2 over PKA
[12] = Volume of distribution at steady state in rat at 1 mg/kg, iv or 2 mg/kg, po; assay type: ADME, organism-based; conditions: in vivo, read-out: Vdss
[13] = Half life in rat at 1 mg/kg, iv or 2 mg/kg, po; assay type: ADME, organism-based; conditions: in vivo
[14] = Cmax in rat at 2 mg/kg, po; assay type: ADME, organism-based; parameters: dose 2 mg/kg, route oral; conditions: in vivo
[15] = AUC in rat at 2 mg/kg, po; assay type: ADME, organism-based; parameters: dose 2 mg/kg, route oral; conditions: plasma
[16] = biological target: RAC-alpha serine/threonine-protein kinase (Homo sapiens, UniProt P31749); assay: Inhibition of Akt1
[17] = Inhibition of p38 kinase
[18] = Inhibition of MRCK
[19] = biological target: Mitogen-activated protein kinase 10 (Homo sapiens, UniProt P53779); assay: Inhibition of JNK3
[20] = biological target: Mitogen-activated protein kinase 8 (Homo sapiens, UniProt P45983); assay: Inhibition of JNK1
Mitogen-activated protein kinase 8, sequence (P45983 whole entry): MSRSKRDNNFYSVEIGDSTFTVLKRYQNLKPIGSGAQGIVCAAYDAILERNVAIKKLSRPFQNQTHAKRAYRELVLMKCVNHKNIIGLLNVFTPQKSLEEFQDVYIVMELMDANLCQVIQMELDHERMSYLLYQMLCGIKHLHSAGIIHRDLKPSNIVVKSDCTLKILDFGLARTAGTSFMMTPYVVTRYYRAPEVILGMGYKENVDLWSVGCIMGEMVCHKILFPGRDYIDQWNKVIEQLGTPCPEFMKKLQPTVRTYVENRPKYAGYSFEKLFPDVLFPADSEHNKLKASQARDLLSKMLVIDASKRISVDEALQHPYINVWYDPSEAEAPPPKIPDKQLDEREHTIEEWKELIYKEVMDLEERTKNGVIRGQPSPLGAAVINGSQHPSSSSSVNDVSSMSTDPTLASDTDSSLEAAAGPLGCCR

T1 sequence (O75116 whole entry): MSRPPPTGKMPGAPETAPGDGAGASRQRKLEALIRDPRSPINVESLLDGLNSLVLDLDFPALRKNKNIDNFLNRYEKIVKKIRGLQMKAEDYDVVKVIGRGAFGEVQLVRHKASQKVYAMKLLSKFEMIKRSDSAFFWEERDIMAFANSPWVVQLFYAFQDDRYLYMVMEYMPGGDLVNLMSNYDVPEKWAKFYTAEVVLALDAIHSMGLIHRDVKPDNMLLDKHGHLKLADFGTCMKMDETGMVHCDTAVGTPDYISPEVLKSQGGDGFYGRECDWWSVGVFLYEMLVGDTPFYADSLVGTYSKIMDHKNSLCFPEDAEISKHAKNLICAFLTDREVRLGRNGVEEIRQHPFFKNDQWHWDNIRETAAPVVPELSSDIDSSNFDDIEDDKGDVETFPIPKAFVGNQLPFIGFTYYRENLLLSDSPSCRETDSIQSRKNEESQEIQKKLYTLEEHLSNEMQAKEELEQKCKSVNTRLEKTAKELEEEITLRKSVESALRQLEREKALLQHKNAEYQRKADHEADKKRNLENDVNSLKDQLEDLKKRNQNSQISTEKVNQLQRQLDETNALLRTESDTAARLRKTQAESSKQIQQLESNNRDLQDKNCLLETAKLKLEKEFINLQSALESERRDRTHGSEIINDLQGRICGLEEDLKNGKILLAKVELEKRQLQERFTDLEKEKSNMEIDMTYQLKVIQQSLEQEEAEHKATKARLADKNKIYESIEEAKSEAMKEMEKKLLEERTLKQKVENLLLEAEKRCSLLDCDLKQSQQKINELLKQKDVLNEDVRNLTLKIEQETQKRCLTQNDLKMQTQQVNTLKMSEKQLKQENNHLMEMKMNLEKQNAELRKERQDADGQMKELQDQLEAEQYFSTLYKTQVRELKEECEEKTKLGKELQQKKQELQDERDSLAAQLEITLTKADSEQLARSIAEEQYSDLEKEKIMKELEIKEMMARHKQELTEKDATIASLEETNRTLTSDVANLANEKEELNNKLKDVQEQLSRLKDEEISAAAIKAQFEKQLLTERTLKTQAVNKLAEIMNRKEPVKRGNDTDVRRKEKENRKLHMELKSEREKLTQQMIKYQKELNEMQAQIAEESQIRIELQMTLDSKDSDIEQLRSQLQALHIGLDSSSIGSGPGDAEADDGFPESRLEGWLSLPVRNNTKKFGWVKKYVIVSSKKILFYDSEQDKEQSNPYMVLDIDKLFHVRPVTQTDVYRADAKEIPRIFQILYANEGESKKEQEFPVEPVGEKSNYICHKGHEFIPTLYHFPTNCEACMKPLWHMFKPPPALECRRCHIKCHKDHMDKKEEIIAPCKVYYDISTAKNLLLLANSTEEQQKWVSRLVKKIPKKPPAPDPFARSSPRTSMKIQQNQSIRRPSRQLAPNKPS
CYP2C9, sequence (P11712 whole entry): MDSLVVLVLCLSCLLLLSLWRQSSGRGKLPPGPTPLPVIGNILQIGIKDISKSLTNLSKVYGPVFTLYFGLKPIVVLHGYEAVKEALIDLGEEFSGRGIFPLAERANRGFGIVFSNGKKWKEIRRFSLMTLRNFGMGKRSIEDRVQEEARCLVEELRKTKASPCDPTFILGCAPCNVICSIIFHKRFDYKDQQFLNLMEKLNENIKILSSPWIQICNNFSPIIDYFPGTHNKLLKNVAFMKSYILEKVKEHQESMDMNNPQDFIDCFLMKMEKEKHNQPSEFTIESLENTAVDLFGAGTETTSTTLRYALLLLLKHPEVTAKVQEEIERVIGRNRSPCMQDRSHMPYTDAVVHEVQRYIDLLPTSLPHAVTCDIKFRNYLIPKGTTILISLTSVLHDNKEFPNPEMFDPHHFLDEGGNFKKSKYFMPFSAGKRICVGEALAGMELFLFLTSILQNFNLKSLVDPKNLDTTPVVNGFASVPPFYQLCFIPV
CYP2D6, sequence (P10635 whole entry): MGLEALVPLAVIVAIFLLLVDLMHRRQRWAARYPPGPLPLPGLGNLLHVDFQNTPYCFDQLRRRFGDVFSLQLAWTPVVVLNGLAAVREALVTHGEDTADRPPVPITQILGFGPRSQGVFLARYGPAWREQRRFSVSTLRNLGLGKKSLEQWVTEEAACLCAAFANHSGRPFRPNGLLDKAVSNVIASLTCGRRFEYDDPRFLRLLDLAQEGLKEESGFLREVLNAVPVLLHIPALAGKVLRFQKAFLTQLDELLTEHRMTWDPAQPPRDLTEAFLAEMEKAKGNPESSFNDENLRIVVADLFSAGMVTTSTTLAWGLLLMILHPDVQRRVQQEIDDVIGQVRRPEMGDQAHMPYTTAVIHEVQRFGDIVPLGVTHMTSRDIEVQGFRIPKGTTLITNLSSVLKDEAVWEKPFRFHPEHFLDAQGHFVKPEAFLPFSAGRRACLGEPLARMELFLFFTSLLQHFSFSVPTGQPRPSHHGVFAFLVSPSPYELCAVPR
CYP3A4, sequence (P08684 whole entry): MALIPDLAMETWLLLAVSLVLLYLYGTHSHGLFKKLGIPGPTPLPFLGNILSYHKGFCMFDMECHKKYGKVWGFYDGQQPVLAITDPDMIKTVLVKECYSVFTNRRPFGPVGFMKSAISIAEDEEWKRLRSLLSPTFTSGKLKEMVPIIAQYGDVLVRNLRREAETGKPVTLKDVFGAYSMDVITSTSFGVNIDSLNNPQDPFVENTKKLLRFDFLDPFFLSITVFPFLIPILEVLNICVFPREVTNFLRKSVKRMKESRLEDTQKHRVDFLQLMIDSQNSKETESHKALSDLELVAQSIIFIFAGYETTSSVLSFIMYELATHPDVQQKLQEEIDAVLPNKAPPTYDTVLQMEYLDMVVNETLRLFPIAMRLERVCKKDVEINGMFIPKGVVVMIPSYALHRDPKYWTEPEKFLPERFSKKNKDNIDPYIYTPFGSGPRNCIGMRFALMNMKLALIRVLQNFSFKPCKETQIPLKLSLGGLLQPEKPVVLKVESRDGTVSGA
RAC-alpha serine/threonine-protein kinase, sequence (P31749 whole entry): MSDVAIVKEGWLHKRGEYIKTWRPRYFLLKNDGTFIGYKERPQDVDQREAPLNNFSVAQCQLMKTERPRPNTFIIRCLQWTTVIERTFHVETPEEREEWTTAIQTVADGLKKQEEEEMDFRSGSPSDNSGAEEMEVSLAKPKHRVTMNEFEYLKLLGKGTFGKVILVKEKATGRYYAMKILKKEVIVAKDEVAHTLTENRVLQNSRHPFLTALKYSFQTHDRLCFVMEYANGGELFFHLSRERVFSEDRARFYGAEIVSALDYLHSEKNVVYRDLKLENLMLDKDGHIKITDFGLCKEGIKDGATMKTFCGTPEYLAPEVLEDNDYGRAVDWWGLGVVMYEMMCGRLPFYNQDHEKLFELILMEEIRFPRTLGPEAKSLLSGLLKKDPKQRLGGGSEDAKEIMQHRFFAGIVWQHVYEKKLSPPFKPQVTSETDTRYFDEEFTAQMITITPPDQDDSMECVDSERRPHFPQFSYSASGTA
Mitogen-activated protein kinase 10, sequence (P53779 whole entry): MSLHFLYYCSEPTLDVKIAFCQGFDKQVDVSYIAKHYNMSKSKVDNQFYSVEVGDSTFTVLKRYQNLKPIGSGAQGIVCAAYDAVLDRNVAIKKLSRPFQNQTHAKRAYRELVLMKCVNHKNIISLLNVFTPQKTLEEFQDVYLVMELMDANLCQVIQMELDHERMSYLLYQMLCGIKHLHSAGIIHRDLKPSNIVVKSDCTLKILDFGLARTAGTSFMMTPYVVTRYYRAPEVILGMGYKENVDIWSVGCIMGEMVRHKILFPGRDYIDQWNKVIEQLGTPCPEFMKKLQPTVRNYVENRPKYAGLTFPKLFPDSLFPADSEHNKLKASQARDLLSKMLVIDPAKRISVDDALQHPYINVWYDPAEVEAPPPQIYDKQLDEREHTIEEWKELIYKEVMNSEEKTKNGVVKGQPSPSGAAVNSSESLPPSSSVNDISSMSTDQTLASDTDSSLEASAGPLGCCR

SMILES	IC50 [1]	half-life [2]	IC50 [3]	IC50 [4]	further results
COC(=O)c1ccc2c(c1)CC(c1nc3ccc(-c4ccnc(N)n4)cc3o1)CO2 (stereo unspecified)	24 nM				
Nc1nccc(-c2ccc3nc(C4COc5ccc(C(=O)NC6CC6)cc5C4)[nH]c3c2)n1 (stereo unspecified)	< 1 nM	79 min	669 nM	212 nM	
CC(C)Oc1ccc2c(c1)CC(c1nc3ccc(-c4ccnc(N)n4)cc3o1)CO2 (stereo unspecified)	294 nM				
Nc1nccc(-c2ccc3nc(C4COc5ccc(C(=O)NCc6ccccc6)cc5C4)[nH]c3c2)n1 (stereo unspecified)	< 1 nM	25 min	75 nM	23 nM	
c1ccc2c(c1)CC(c1nc3ccc(-c4ccncc4)cc3[nH]1)CO2 (stereo unspecified)	2 nM	29 min	317 nM	< 6 nM	inhibition at 10 µM [5]: 95%; inhibition at 10 µM [6]: 96%; inhibition at 10 µM [7]: 92%; inhibition at 10 µM [8]: 90%
Cc1ccc2c(c1)CC(c1nc3ccc(-c4ccnc(N)n4)cc3o1)CO2 (stereo unspecified)	78 nM	25 min	6390 nM		
Cc1[nH]ncc1-c1ccc2nc(C3COc4ccccc4C3)oc2c1 (stereo unspecified)	9 nM	70 min	778 nM	533 nM	
Nc1nccc(-c2ccc3nc(C4COc5ccccc5C4)[nH]c3c2)n1 (stereo unspecified)	8 nM	44 min	198 nM	66 nM	inhibition at 10 µM [5]: 13%; inhibition at 10 µM [6]: -3%; inhibition at 10 µM [7]: 15%; inhibition at 10 µM [8]: 31%
COc1ccc2c(c1)CC(c1nc3ccc(-c4ccnc(N)n4)cc3o1)CO2 (stereo unspecified)	2 nM	34 min		46 nM	bioavailability [9]: 63%; clearance [10]: 8.4 mL/min/kg; fold change (FC) [11]: 950; Vd [12]: 1.6 L/kg; half-life [13]: 156 min; Cmax [14]: 970 nM; AUC [15]: 6.6 µM·h
CC(C)Oc1ccc2c(c1)CC(c1nc3ccc(-c4ccnc(N)n4)cc3[nH]1)CO2 (stereo unspecified)	296 nM		6380 nM		
COc1ccc2c(c1)CC(c1nc3ccc(-c4ccnc(N)n4)cc3[nH]1)CO2 (stereo unspecified)		28 min	602 nM	99 nM	bioavailability [9]: 35%; clearance [10]: 17 mL/min/kg; fold change (FC) [11]: 240; Vd [12]: 0.89 L/kg; half-life [13]: 138 min; Cmax [14]: 900 nM; AUC [15]: 1.9 µM·h
COc1ccc2c(c1)CC(c1nc3c(F)cc(-c4ccnc(N)n4)cc3[nH]1)CO2 (stereo unspecified)	< 1 nM		397 nM	< 6 nM	IC50 [16]: 5000 nM; IC50 [17]: > 20000 nM; IC50 [18]: 1100 nM; bioavailability [9]: 29%; clearance [10]: 12 mL/min/kg; Vd [12]: 0.63 L/kg; half-life [13]: 84 min; Cmax [14]: 740 nM; AUC [15]: 2.2 µM·h; IC50 [19]: 16800 nM; IC50 [20]: 14100 nM
Nc1nccc(-c2ccc3nc(C4COc5ccc(F)cc5C4)oc3c2)n1 (stereo unspecified)	15 nM	91 min	2910 nM	28 nM	
Nc1nccc(-c2ccc3nc(C4COc5ccc(F)cc5C4)[nH]c3c2)n1 (stereo unspecified)	6 nM	45 min	270 nM		
c1ccc2c(c1)CC(c1nc3ccc(-c4cn[nH]c4)cc3o1)CO2 (stereo unspecified)	21 nM	40 min	1210 nM	330 nM	inhibition at 10 µM [5]: 80%; inhibition at 10 µM [6]: 15%; inhibition at 10 µM [7]: 41%; inhibition at 10 µM [8]: 27%
Nc1nccc(-c2ccc3nc(C4COc5ccccc5C4)oc3c2)n1 (stereo unspecified)	27 nM	57 min	1340 nM		inhibition at 10 µM [5]: -8%; inhibition at 10 µM [6]: -6%; inhibition at 10 µM [7]: -4%; inhibition at 10 µM [8]: 0%
COC(=O)c1ccc2c(c1)CC(c1nc3ccc(-c4ccnc(N)n4)cc3[nH]1)CO2 (stereo unspecified)	6 nM	18 min	10200 nM	271 nM	
Cc1[nH]ncc1-c1ccc2nc(C3COc4ccccc4C3)[nH]c2c1 (stereo unspecified)	9 nM	30 min	122 nM		
c1ccc2c(c1)CC(c1nc3ccc(-c4cn[nH]c4)cc3[nH]1)CO2 (stereo unspecified)	27 nM	20 min	168 nM	86 nM	inhibition at 10 µM [5]: 84%; inhibition at 10 µM [6]: 47%; inhibition at 10 µM [7]: 84%; inhibition at 10 µM [8]: 51%

From ChEMBL document CHEMBL1152196, “Benzimidazole- and benzoxazole-based inhibitors of Rho kinase” (Bioorg Med Chem Lett, 2008)
